In patent US6777412B2 (priority 1990, dated 2004):
Read-outs that look alike come from different tables or passages of the source. Marks after values point to notes of the source that are not given here.

Experiments:
Assay type in all cases: in vivo
Plasmopara viticola = test: Foliar fungal disease test on plants: Plasmopara viticola (Pv)
How it was run: (§1)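 Potted plants treated by foliar spray to maximum retention (100 ppm a.i. unless stated) plus root drench (~40 ppm a.i. in dry soil), with 0.05% Tween 20 on cereals, one or two days before spore-suspension inoculation.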

[1] = tested on: Phytophthora infestans lycopersici
Pyricularia oryzae = tested on: Pyricularia oryzae
Venturia inaequalis = test: Foliar fungal disease test on plants: Venturia inaequalis (Vi)
How it was run: as §1

Thanatephorus cucumeris = test: Foliar fungal disease test on plants: Thanatephorus cucumeris (Tc)
Procedure: (§2) The compounds were tested against a variety of foliar fungal diseases of plants. The technique employed was as follows.
(§3) The plants were grown in John Innes Potting Compost (No.1 or 2) in 4 cm diameter minipots. The test compounds were formulated either by bead milling with aqueous Dispersol T or as a solution in acetone or acetone/ethanol which was diluted to the required concentration immediately before use. For the foliage diseases, the formulations (100 ppm active ingredient except where otherwise indicated) were sprayed onto the foliage and applied to the roots of the plants in the soil. The sprays were applied to maximum retention and the root drenches to a final concentration equivalent to approximately 40 ppm a.i. in dry soil. Tween 20, to give a final concentration of 0.05%, was added when the sprays were applied to cereals.
(§4) For most of the tests the compound was applied to the soil (roots) and to the foliage (by spraying) one or two days before the plant was inoculated with the disease. An exception was the test on Erysiphe graminis in which the plants were inoculated 24 hours before treatment. Foliar pathogens were applied by spray as spore suspensions onto the leaves of test plants. After inoculation, the plants were put into an appropriate environment to allow infection to proceed and then incubated until the disease was ready for assessment. The period between inoculation and assessment varied from four to fourteen days according to the disease and environment.
(§5) The disease control vas recorded by the following grading:
(§6) 3=trace-5% of disease on untreated plants
(§7) 2=6-25% of disease on untreated plants
(§8) 1=26-59% of disease on untreated plants
(§9) 0=60-100% of disease on untreated plants
Tc Thanatephorus cucumeris

Erysiphe graminis hordei = test: Foliar fungal disease test on plants: Erysiphe graminis hordei (Egh)
Procedure: as §2, §3, §4, §5, §6, §7, §8, §9
Egh Erysiphe graminis hordei

Puccinia recondita = test: Foliar fungal disease test on plants: Puccinia recondita (Pr)
How it was run: as §1

Septoria nodorum = test: Foliar fungal disease test on plants: Septoria nodorum (Sn)
Procedure: as §2, §3, §4, §5, §6, §7, §8, §9

[2] = tested on: Erysiphe graminis tritici; test: Foliar fungal disease test on plants: Erysiphe graminis tritici (Egt); settings: 100 ppm active ingredient foliar spray plus root drench (approx. 40 ppm a.i. in dry soil); plants inoculated 24 hours before treatment
Procedure: as §2, §3, §4, §5, §6, §7, §8, §9
Egt Erysiphe graminis tritici

[3] = 100 ppm active ingredient foliar spray plus root drench (approx. 40 ppm a.i. in dry soil), one or two days before inoculation
[4] = 100 ppm active ingredient foliar spray plus root drench (approx. 40 ppm a.i. in dry soil), plants inoculated 24 hours before treatment

SMILES | disease control grading, Pv (Plasmopara viticola) (Plasmopara viticola; [3]) | disease control grading, Pil (Phytophthora infestans lycopersici) [1, 3] | disease control grading, Po (Pyricularia oryzae) (Pyricularia oryzae; [3]) | disease control grading, Vi (Venturia inaegualis) (Venturia inaequalis; [3]) | disease control grading, Tc (Thanatephorus cucumeris) (Thanatephorus cucumeris; [3]) | disease control grading, Egh (Erysiphe graminis hordei) (Erysiphe graminis hordei; [4]) | disease control grading, Pr (Puccinia recondita) (Puccinia recondita; [3]) | disease control grading, Pv (Plasmopara viticola) (Plasmopara viticola; 10 ppm foliar application only) | disease control grading, Pil (Phytophthora infestans lycopersici) ([1]; 10 ppm foliar application only) | disease control grading, Po (Pyricularia oryzae) (Pyricularia oryzae; 10 ppm foliar application only) | disease control grading, Vi (Venturia inaegualis) (Venturia inaequalis; 10 ppm foliar application only) | disease control grading, Tc (Thanatephorus cucumeris) (Thanatephorus cucumeris; 10 ppm foliar application only) | disease control grading, Egh (Erysiphe graminis hordei) (Erysiphe graminis hordei; 10 ppm foliar application only) | disease control grading, Pr (Puccinia recondita) (Puccinia recondita; 10 ppm foliar application only) | disease control grading, Sn (Septoria nodorum) (Septoria nodorum; 10 ppm foliar application only) | disease control grading, Sn (Septoria nodorum) (Septoria nodorum; [3]) | disease control grading, Egt (Erysiphe graminis tritici) [2]
CO/C=C(/C(=O)OC)c1ccccc1Oc1cc(OCc2ccc([N+](=O)[O-])cc2)ncn1 [133 of Table I] | 4 (4=no disease) | 0 (0=60-100% of disease on untreated plants) | 3 (3=trace-5% of disease on untreated plants) | 3 (3=trace-5% of disease on untreated plants) | 4 (4=no disease) | 4 (4=no disease) | 4 (4=no disease) |  |  |  |  |  |  |  |  |  | 
CO/C=C(/C(=O)OC)c1ccccc1Oc1cc(OCc2ccccc2[N+](=O)[O-])ncn1 [375 of Table I] | 3 (3=trace-5% of disease on untreated plants) | 0 (0=60-100% of disease on untreated plants) | 4 (4=no disease) | 3 (3=trace-5% of disease on untreated plants) | 4 (4=no disease) | 4 (4=no disease) | 4 (4=no disease) |  |  |  |  |  |  |  |  |  | 
CO/C=C(/C(=O)OC)c1ccccc1Oc1cc(OC/C=C/c2ccccc2)ncn1 [376 of Table I] | 4 (4=no disease) | 4 (4=no disease) | 3 (3=trace-5% of disease on untreated plants) | 4 (4=no disease) | 4 (4=no disease) | 4 (4=no disease) | 4 (4=no disease) |  |  |  |  |  |  |  |  |  | 
CO/C=C(/C(=O)OC)c1ccccc1Oc1cc(OCc2c(Cl)cccc2C(F)(F)F)ncn1 [383 of Table I] |  |  |  |  |  |  |  | 4^a (4=no disease) | 0^a (0=60-100% of disease on untreated plants) | 0^a (0=60-100% of disease on untreated plants) | 3^a (3=trace-5% of disease on untreated plants) | 4^a (4=no disease) | 0^a (0=60-100% of disease on untreated plants) | 4^a (4=no disease) | 4^a (4=no disease) |  | 
CO/C=C(/C(=O)OC)c1ccccc1Oc1cc(OCCCc2ccccc2Cl)ncn1 [384 of Table I] | 4 (4=no disease) | 4 (4=no disease) |  | 4 (4=no disease) | 4 (4=no disease) | 4 (4=no disease) | 4 (4=no disease) |  |  |  |  |  |  |  |  | 4 (4=no disease) | 
CO/C=C(/C(=O)OC)c1ccccc1Oc1cc(OCc2ccccc2C(F)(F)F)ncn1 [385 of Table I] | 4 (4=no disease) | 4 (4=no disease) |  | 4 (4=no disease) | 4 (4=no disease) | 4 (4=no disease) | 4 (4=no disease) |  |  |  |  |  |  |  |  | 4 (4=no disease) | 
CO/C=C(/C(=O)OC)c1ccccc1Oc1cc(OCc2c(F)cccc2Cl)ncn1 [386 of Table I] | 4 (4=no disease) | 4 (4=no disease) | 4 (4=no disease) | 4 (4=no disease) | 4 (4=no disease) | 4 (4=no disease) | 4 (4=no disease) |  |  |  |  |  |  |  |  | 4 (4=no disease) | 
CO/C=C(/C(=O)OC)c1ccccc1Oc1cc(OCC#Cc2ccccc2)ncn1 [387 of Table I] | 4 (4=no disease) | 4 (4=no disease) | 4 (4=no disease) | 4 (4=no disease) | 4 (4=no disease) | 4 (4=no disease) | 4 (4=no disease) |  |  |  |  |  |  |  |  | 4 (4=no disease) | 
CO/C=C(/C(=O)OC)c1ccccc1Oc1cc(OCc2c(F)c(F)c(F)c(F)c2F)ncn1 [388 of Table I] | 4 (4=no disease) | 4 (4=no disease) | 4 (4=no disease) | 4 (4=no disease) | 4 (4=no disease) | 4 (4=no disease) | 4 (4=no disease) |  |  |  |  |  |  |  |  | 4 (4=no disease) | 
CO/C=C(/C(=O)OC)c1ccccc1Oc1cc(OCc2ccccc2C#N)ncn1 [389 of Table I] |  |  |  |  |  |  |  | 4^a (4=no disease) | 0^a (0=60-100% of disease on untreated plants) | 4^a (4=no disease) | 4^a (4=no disease) | 4^a (4=no disease) | 4^a (4=no disease) | 4^a (4=no disease) | 4^a (4=no disease) |  | 
CO/C=C(/C(=O)OC)c1ccccc1Oc1cc(OCCOc2ccc(C#N)cc2)ncn1 [390 of Table I] | 4 (4=no disease) | 0 (0=60-100% of disease on untreated plants) | 4 (4=no disease) | 4 (4=no disease) | 1 (1=26-59% of disease on untreated plants) | 3 (3=trace-5% of disease on untreated plants) | 4 (4=no disease) |  |  |  |  |  |  |  |  | 3 (3=trace-5% of disease on untreated plants) | 
CO/C=C(/C(=O)OC)c1ccccc1Oc1cc(Sc2nc3ccccc3s2)ncn1 [530 of Table I] | 4 (4=no disease) | 4 (4=no disease) | 0 (0=60-100% of disease on untreated plants) | 4 (4=no disease) |  |  | 3 (3=trace-5% of disease on untreated plants) |  |  |  |  |  |  |  |  | 4 (4=no disease) | 4 (4=no disease)
